These results are taken from patent US20260240925A1, “METHOD AND COMPOSITION FOR PREVENTING OR TREATING MYOPIA” (Tsubota Laboratory, Inc., priority 2022, published 2026).

Common to all, as to format: in vivo, mouse
One experiment relates to choroidal macrophages. In words: M2 macrophage polarization in the choroid after IL-13 administration, flow cytometry. The following applies: IL-13 during the myopia induction period. How it is done:
The number of macrophages was measured using a flow cytometer (CytoFLEX S, Beckman Coulter) after digestion of the choroid and staining with F4/80 antibody and CD11b antibody. The number of M2 macrophages was measured in the same manner as for the measurement of the number of macrophages, except for the addition of a staining process with CD206 antibody.
On the technique in general: Flow cytometry measures light scatter and fluorescence of single cells or particles in a stream.

The subject of the next experiment is C57BL6J mice. In words: Myopia suppression by IL-13 administration during the myopia induction period (minus lens). The following applies: IL-13 during the myopia induction period. As to the method: (§1) The axial length, choroidal thickness, and refractivity of the mice in each group were measured. The axial length and the choroidal thickness were measured using spectral domain optical coherence tomography (Envisu R4310, manufactured by Leica). The refractivity was measured using an infrared photorefractor for mice (made by Professor Schaeffel, University of Tubingen).
Changes in blood flow were measured using swept-source optical coherence tomography (OCT S-1, Canon).

The subject of experiment [1] is lens-induced myopia model mice. In words: Test Example 3: mast cell stabilizer instillation in lens-induced myopia model. The following applies: for progression of myopia: ocular instillation, minus-lens-induced myopia mouse model; for choroidal thinning (change in choroidal thickness) / myopic shift in refraction (change in refractive value) / ocular elongation (change in axial length): once daily ocular instillation, 3 weeks myopia induction, cromolyn 4% solution, pemirolast potassium 0.1% solution, vs PBS group. As to the method: as §1
To verify the inhibitory effect of mast cell stabilizer instillation on myopia progression, a lens-induced myopia model was employed, wherein myopia was induced in mice by fitting the mice with minus lenses. During the myopia induction period, either cromolyn solution (4% solution) or pemirolast potassium (0.1% solution) was administered once daily by means of ocular instillation.
Following the test method described above, the axial length, refractive value, and choroidal thickness were measured in mice that underwent myopia induction for 3 weeks and ocular instillation of cromolyn solution or pemirolast potassium solution, as well as in control mice, and the amounts of changes therein were calculated (FIG. 7A, B, and C).

In experiment [2] the test system is mice with LIM-induced myopia. Nature of the experiment: Test Example 4: mast cell stabilizer vs histamine receptor antagonist instillation in mice with LIM-induced myopia. The following applies: for choroidal thinning (change in choroidal thickness) / myopic shift in refraction (change in refractive value) / ocular elongation (change in axial length): eye drops, pemirolast potassium 0.1% solution, levocabastine 0.025% solution, vs control group. How it is done: as §1
Anti-allergic drugs are broadly divided into two types: mast cell stabilizers, which inhibit mast cell degranulation, and histamine receptor inhibitors, which inhibit the action of histamine secreted due to mast cell degranulation. In order to clarify whether the myopia suppression effect of the mast cell stabilizer instillation in Test Example 3 was due to the action of the anti-allergic drug or to the inhibition of mast cell degranulation, pemirolast potassium (0.1% solution) and levocabastine solution (0.025% solution) were administered as eye drops, respectively as a mast cell stabilizer and a histamine receptor inhibitor, to mice with LIM-induced myopia, and the myopia-suppressing effects were compared.

Experiment [3] concerns M2 macrophage markers CD163 and CD206. Nature of the experiment: M2 macrophage polarization in the choroid after IL-4 administration (Western blot, real-time PCR). The following applies: IL-4 10 μg/kg BW intraperitoneally. How it is done: Therefore, IL-4, which is a cytokine necessary for M2 macrophage polarization, was administered to mice, and whether M2 polarization would occur in the choroid was evaluated by means of analyzing the expression levels of M2 macrophage markers CD163 and CD206 (FIG. 3A and B).
C57BL6J mice (n=4 per group) were intraperitoneally administered 0.1 μg/100 μl (10 μg/kg BW) of IL-4 solution. Choroid, retina, and liver samples were taken at 0 hours (before administration) as well as 4, 24, and 48 hours after administration, and the expression of M2 macrophage marker genes was analyzed by Western blot and real-time PCR (FIG. 3). In addition, choroid and retina samples were collected at 0 hours (before administration) as well as 4 and 24 hours after administration, and the expression of oxidative-stress-related genes was analyzed by real-time PCR (FIG. 4).
Background: In western blotting, separated proteins are transferred to a membrane and probed.

Experiment [4] has as its system C57BL6 mice undergoing myopia induction. In words: Myopia suppression by IL-4 administration in mice undergoing myopia induction (-30 D lens). The following applies: IL-4 10 μg/kg BW intraperitoneally for 3 weeks. As to the method:
as §1
Additionally, IL-4 was administered to mice undergoing myopia induction to evaluate whether there is a myopia suppression effect (FIG. 4).
C57BL6 mice undergoing myopia induction (−30 D lens, n=4) were intraperitoneally administered 0.1 μg/100 μl (10 μg/kg BW) of IL-4 solution for 3 weeks. C57BL6J mice undergoing myopia induction (0 D lens, −30 D lens, n=4 per group) were used as control groups.

Take “IL-13: a cytokine that causes M2 polarization of macrophages”: in the experiment on choroidal macrophages, the M2 macrophage polarization result is “induced”. Besides, in the experiment on C57BL6J mice, the choroidal thinning entry is on record as “suppressed”, the minus-lens-induced ocular elongation entry is “suppressed” and the “myopic shift in refraction” value is recorded as “suppressed”.

Take `O=C(O)c1cc(=O)c2c(OCC(O)COc3cccc4oc(C(=O)O)cc(=O)c34)cccc2o1` [cromolyn, cromolyn sodium]: in experiment [1], the progression of myopia entry is “suppression”, the “choroidal thinning (change in choroidal thickness)” value is “not observed”, the “myopic shift in refraction (change in refractive value)” value is recorded as “not observed” and the “ocular elongation (change in axial length)” value was “not observed”.

For `C[C@@H]1CN([C@H]2CC[C@](C#N)(c3ccc(F)cc3)CC2)CC[C@]1(C(=O)O)c1ccccc1` [levocabastine], in experiment [2], the “choroidal thinning (change in choroidal thickness)” value is reported as “observed”, the “myopic shift in refraction (change in refractive value)” value was “observed” and the “ocular elongation (change in axial length)” value is “observed”. Besides, the progression of myopia entry in experiment [2] (ocular instillation, mice undergoing myopia induction by fitting a minus lens) was “not suppressed”.

For `Cc1cccn2c(=O)c(-c3nnn[nH]3)cnc12` [pemirolast potassium], in experiment [2], the “choroidal thinning (change in choroidal thickness)” value is “not observed”, the “myopic shift in refraction (change in refractive value)” value was “not observed” and the “ocular elongation (change in axial length)” value is recorded as “not observed”. In experiment [1], the progression of myopia entry was “suppression”, the “choroidal thinning (change in choroidal thickness)” value is recorded as “not observed”, the “myopic shift in refraction (change in refractive value)” value was “not observed” and the “ocular elongation (change in axial length)” value was “not observed”.

B1: IL-4: a cytokine necessary for M2 macrophage polarization (protein, UniProt P05112 25-153, looked up)
Interleukin-4: HKCDITLQEIIKTLNSLTEQKTLCTELTVTDIFAASKNTTEKETFCRAATVLRQFYSHHEKDTRCLGATAQQFHRHKQLIRFLKRLDRNLWGLAGLNSCPVKEANQSTLENFLERLKTIMREKYSKCSS
As to B1, in experiment [3] (0, 4, 24, 48 hours), the “expression of M2 markers CD163 and CD206 in the choroid” value is listed as “increased the expression”. The M2 macrophage polarization entry in experiment [3] (choroid) was “confirmed”. Moreover, the “expression of oxidative-stress-related genes” value in experiment [3] (choroid and retina, 0, 4, 24 hours, real-time PCR) is reported as “suppressed expression”. The “expression of M2 macrophage marker genes” value in experiment [3] (gene expression analysis) is “increased expression”. In experiment [4], the choroidal thinning result is on record as “suppresses”, the ocular elongation entry was “suppresses” and the refractive loss entry is listed as “suppresses”.
